This assay addresses T1, heteromeric KV7.2/KV7.3 channels (KCNQ2, KCNQ3) (Homo sapiens, UniProt O43525+O43526).
T1 construct: expressed in transfected cells; host or cells: CHO-K1
The assay is described as follows: Automated patch-clamp (Sophion Qube 384) potency assay against KV7.2/KV7.3 channels. It counts as cell-based. The conditions noted are these: CHO-K1/Kv7.2/Kv7.3 cells; for EC50: EC50 from concentration-response of shift in Vhalf, 10 concentrations up to 30 μM, read-out: Kv7.2/7.3 EC50; for Kv7.2/7.3 ΔV1/2: maximal shift in the Vhalf from the top of the curve. From the text: Assessment of In Vitro Potency Against KV7.2/KV7.3 Channels
An automated patch-clamp assay on the Sophion Qube 384 was developed for potency testing to identify small molecule activators of heteromeric KV7.2/KV7.3 channels (KCNQ2, Uniprot ID 043526; KCNQ3, Uniprot 043525).
The cell line used was a stably transfected CHO-K1 cell line with constitutive KV7.2/KV7.3 expression.
CHO-K1/Kv7.2/Kv7.3 cells were maintained in the following culture media: • DMEM/F-12 with GlutaMAX™ (Gibco 31331-028), • 10% Fetal clone 2 serum (Perbio Science SH30066.03), • 1 mg/ml Geneticin™ selective antibiotic (G418, Invitrogen 1013027), and • 5 μg/ml BlasticidinS HCl (Invivogen Ant-bl-5).
On the day of the experiment, cells were resuspended in serum free media, counted and diluted to a final concentration of 3.5×10^6 cells per ml of media.
Cells were then placed onto the Sophion Qube 384 and rested for a minimum of 1 hour.
The following solutions were used for recording: • extracellular solution (in mM): 145 NaCl, 4 KCl, 1 MgCl2, 2 CaCl2), 10 HEPES, 10 glucose, pH 7.4, 315-320 mOsm. • intracellular solution (in mM): 120 KCl, 5.74 CaCl2), 1.75 MgCl2, 10 EGTA, 10 HEPES, 5 Na2ATP, pH 7.2, adjusted to 315 mOsm with sucrose.
After establishing the whole-cell configuration, cells were held at −80 mV throughout the experiment. A current-voltage (I-V) protocol stepping from −100 to +20 mV for 1 second was applied to measure Kv7.2/Kv7.3 currents, each step was followed by a 200 ms pulse to 0 mV to measure the tail currents. From the I-V protocol a Boltzmann fit was applied to generate activation curves. Data were sampled at 25 kHz and filtered at 5 kHz (Bessel). Data were produced using multihole QChips. The I-V protocol was applied several times to establish the response in control conditions (typically 0.3% DMSO) and in the presence of the test compound.
Data were reviewed in Sophion Analyser version 6.5.2 (Sophion Bioscience) for recording quality and filters were applied to remove any failed wells. Leak subtraction was applied to all recordings. Data filters for multihole QChips were typically: seal resistance>4 MΩ, capacitance >20 pF, baseline VHalf between 0 to −40 mV, baseline holding current between −2 to 2 nA, baseline steady state current at 20 mV >4 nA unless otherwise stated.
Analysis of Data for Assessment of Potency
10 concentrations of test compounds were applied to individual wells in quadruplicate to assess potency as a 1 in 3 dilution series from the maximal concentration of 30 μM. The average shift in the voltage for half activation (Vhalf) for each concentration was used to generate concentration-response curves fitted with a 4-parameter logistic model to estimate the EC50 from the point of inflection of the curve and the maximal shift in the Vhalf from the top of the curve.
The lower the EC50 value, the higher the potency of the analyzed compound. The selectivity criteria is assigned on the basis of the maximal shift in the Vhalf at 30 μM. […] In Table 3, ND means that selectivity was not determined.
(The patch-clamp technique gives a direct electrical read-out from membranes.)

Where only a bound is given, the exact number is not on record here.

From US20260207563A1, “UREA COMPOUNDS AS ACTIVATORS OF POTASSIUM CHANNELS KV7.2/7.3 USEFUL IN THE TREATMENT OF CNS AND PNS DISORDERS” (ANGELINI PHARMA S.P.A., priority 2022, published 2026) come the findings set out here.

As to `C[C@@H](Oc1cc(CNC(=O)N[C@@H]2COc3ccccc3C2)ncn1)C(F)(F)F` [Compound 221], the EC50 amounted to 3.2 µM and the “Kv7.2/7.3 ΔV1/2” value is reported as 35.15 mV.

Regarding `O=C(NCc1ccnc(OCC(F)(F)F)c1)N[C@H]1CC[C@@H](c2ccccc2F)C1` [Compound 198], the EC50 worked out at 1.37 µM and the “Kv7.2/7.3 ΔV1/2” value was determined as 76.04 mV.

For the compound `O=C(NCc1ccnc(OCC(F)(F)F)c1)N[C@H]1COC2(CC2)C1` [Compound 240], the EC50 came out at 11.7 µM and the “Kv7.2/7.3 ΔV1/2” value is given as 46.27 mV.

Turning to `COc1cccc(N2CC[C@@H](NC(=O)NCc3ccnc(OCC(F)(F)F)c3)C2)c1` [Compound 194], the EC50 was 2.58 µM and the “Kv7.2/7.3 ΔV1/2” value worked out at 29.55 mV.

For `O=C(NCc1ccnc(OCC(F)(F)F)c1)N[C@@H]1COC[C@H]1Oc1ccccc1F` [Compound 243], the EC50 came out at 3.73 µM and the “Kv7.2/7.3 ΔV1/2” value came out at 26.56 mV.

Regarding `Cc1cccc2c1[C@@H](NC(=O)NCc1ccnc(OCC(F)(F)F)c1)CC2` [Compound 169], the EC50 is 1.4 µM and the “Kv7.2/7.3 ΔV1/2” value came to 24.08 mV.

Consider `O=C(NCc1ccnc(OCC(F)(F)F)c1)N[C@@H]1CN(CC(F)(F)F)C[C@H]1c1ccccc1` [Compound 232], for which the EC50 was found to be 1.43 µM and the “Kv7.2/7.3 ΔV1/2” value was 23.95 mV.

Turning to `O=C(NCc1ccnc(OCC(F)(F)F)n1)N[C@@H]1CCc2ccccc21` [Compound 171], the EC50 was determined as 1.24 µM and the “Kv7.2/7.3 ΔV1/2” value turned out to be 48.06 mV.

Regarding `O=C(NCc1ccnc(OCC(F)(F)F)c1)N[C@@H]1COC[C@H]1Oc1cccc(F)c1` [Compound 222], the EC50 amounted to 4.16 µM and the “Kv7.2/7.3 ΔV1/2” value was 28.1 mV.

In the case of `O=C(NCc1ccnc(OCC(F)(F)F)c1)NCC12CC(F)(CO1)C2` [Compound 239], the EC50 was 5.1 µM and the “Kv7.2/7.3 ΔV1/2” value is 20.11 mV.

In the case of `O=C(NCc1ccnc(OCC(F)(F)F)c1)N[C@@H]1CCSc2ccccc21` [Compound 174], the EC50 worked out at 1.24 µM and the “Kv7.2/7.3 ΔV1/2” value stood at 47.65 mV.

Regarding `O=C(NCc1ccnc(OCC(F)(F)F)c1)N[C@H]1CSc2ccccc2C1` [Compound 173], the EC50 came to 0.33 µM and the “Kv7.2/7.3 ΔV1/2” value is 31.15 mV.

Regarding `C[C@@H](Oc1cc(CNC(=O)N[C@@H]2CCOc3ccccc32)ncn1)C(F)(F)F` [Compound 205], the EC50 was 7.09 µM and the “Kv7.2/7.3 ΔV1/2” value came out at 40.29 mV.

With `O=C(NCc1ccnc(OCC(F)(F)F)c1)NCc1ccnc(OCC(F)(F)F)c1` [Compound 248], the EC50 came out at 2.61 µM and the “Kv7.2/7.3 ΔV1/2” value is 23.91 mV.

As for `CC1(C)C[C@H](NC(=O)NCc2ccnc(OCC(F)(F)F)c2)c2ccccc2O1` [Compound 200], the EC50 was determined as 2.51 µM and the “Kv7.2/7.3 ΔV1/2” value is listed as 25.04 mV.

As for `O=C(NCc1ccnc(OCC(F)(F)F)c1)N[C@@H]1CCOc2cc(F)ccc21` [Compound 204], the EC50 worked out at 0.98 µM and the “Kv7.2/7.3 ΔV1/2” value is reported as 38.78 mV.

`C[C@@H](Oc1cc(CNC(=O)N[C@@H]2COc3ccc(F)cc32)ncn1)C(F)(F)F` [Compound 208]: the EC50 came out at 8.15 µM and the “Kv7.2/7.3 ΔV1/2” value came out at 23.96 mV.

With `O=C(NCc1ccnc(OCC(F)(F)F)c1)N[C@H]1CCOc2c(F)cccc21` [Compound 181], the EC50 was 0.7 µM and the “Kv7.2/7.3 ΔV1/2” value amounted to 24.16 mV.

In the case of `O=C(NCc1ccnc(OCC(F)(F)F)c1)N[C@H]1CCO[C@@H]1c1ccccc1` [Compound 197], the EC50 was 7.62 µM and the “Kv7.2/7.3 ΔV1/2” value was found to be 39.86 mV.

Take `O=C(NCc1ccnc(OCC(F)(F)F)c1)N[C@@H]1COC2(CC2)C1` [Compound 235]: the EC50 stood at 6.22 µM and the “Kv7.2/7.3 ΔV1/2” value worked out at 21.79 mV.

As to `C[C@@H](NC(=O)NCc1ccnc(OCC(F)(F)F)c1)c1ccc2c(c1)OC(F)(F)O2` [Compound 226], the EC50 came to 1.83 µM and the “Kv7.2/7.3 ΔV1/2” value is 22.4 mV.

In the case of `C[C@@H](Oc1cc(CNC(=O)N[C@H](C2CC2)C(F)(F)F)ncn1)C(F)(F)F` [Compound 224], the EC50 came to 3.43 µM and the “Kv7.2/7.3 ΔV1/2” value was determined as 37.09 mV.

With `O=C(NCc1ccnc(OCC(F)(F)F)c1)N[C@H]1C[C@H]2CC[C@@H]1O2` [Compound 236], the EC50 was 11.9 µM and the “Kv7.2/7.3 ΔV1/2” value is on record as 31.52 mV.

As for `O=C(NCc1ccnc(OCC(F)(F)F)c1)N[C@@H]1CCOc2c(F)cccc21` [Compound 179], the EC50 was 2 µM and the “Kv7.2/7.3 ΔV1/2” value came out at 33.61 mV.

For `COc1ccc([C@H](NC(=O)NCc2ccnc(OCC(F)(F)F)c2)C(F)(F)F)cc1` [Compound 233], the EC50 is 2.52 µM and the “Kv7.2/7.3 ΔV1/2” value is on record as 28.00 mV.

Consider `Cn1ncc(C(F)(F)F)c1COc1cc(CNC(=O)NCCC2(C(F)(F)F)CC2)ccn1` [Compound 246], for which the EC50 was 1.76 µM and the “Kv7.2/7.3 ΔV1/2” value came to 22.48 mV.

As to `C[C@@H](Oc1cc(CNC(=O)N[C@@H](C2CC2)C(F)(F)F)ncn1)C(F)(F)F` [Compound 223], the EC50 came out at 7.4 µM and the “Kv7.2/7.3 ΔV1/2” value came out at 41.12 mV.

`C[C@@H](NC(=O)NCc1ccnc(OCC(F)(F)F)c1)c1cccc2c1OC(F)(F)O2` [Compound 227]: the EC50 worked out at 1.86 µM and the “Kv7.2/7.3 ΔV1/2” value came to 31.71 mV.

Consider `O=C(NCc1ccnc(OCC(F)(F)F)c1)NC[C@H]1COc2ccccc2C1` [Compound 201], for which the EC50 amounted to 2.22 µM and the “Kv7.2/7.3 ΔV1/2” value was found to be 27.95 mV.

As for `O=C(NCc1ccnc(OCC(F)(F)F)c1)N[C@@H]1CCO[C@H]1c1ccc(F)cc1` [Compound 242], the EC50 was determined as 2.98 µM and the “Kv7.2/7.3 ΔV1/2” value is given as 34.51 mV.

For `O=C(NCc1ccnc(OCC(F)(F)F)c1)NCC12CC(C(F)(F)F)(C1)C2` [Compound 228], the EC50 was 0.97 µM and the “Kv7.2/7.3 ΔV1/2” value is recorded as 20.27 mV.

For the compound `COc1ccc([C@H](CF)NC(=O)NCc2ccnc(OCC(F)(F)F)c2)cc1` [Compound 215], the EC50 came out at 4.17 µM and the “Kv7.2/7.3 ΔV1/2” value was 24.17 mV.

With `O=C(NCc1ccnc(OCC(F)(F)F)c1)N[C@H]1COC[C@H]1c1ccc(F)cc1` [Compound 220], the EC50 came to 11.8 µM and the “Kv7.2/7.3 ΔV1/2” value worked out at 29.83 mV.

On to `O=C(NCc1ccnc(OCC(F)(F)F)c1)N[C@@H]1C[C@@H]2CC[C@H]1O2` [Compound 237], for which the EC50 was 11.7 µM and the “Kv7.2/7.3 ΔV1/2” value was 29.76 mV.

Take `O=C(NCc1ccnc(OCC(F)(F)F)c1)N[C@H]1CCSc2ccccc21` [Compound 175]: the EC50 was determined as 1.22 µM and the “Kv7.2/7.3 ΔV1/2” value worked out at 20.52 mV.

For the compound `O=C(NCc1ccnc(OCC(F)(F)F)c1)N[C@H]1CN(CC(F)(F)F)C[C@@H]1c1ccccc1` [Compound 231], the EC50 was > 30 µM and the “Kv7.2/7.3 ΔV1/2” value is 49.96 mV.

Regarding `O=C(NCc1ccnc(OCC(F)(F)F)c1)NCC12CC(F)(C1)C2` [Compound 219], the EC50 came out at 2.26 µM and the “Kv7.2/7.3 ΔV1/2” value is on record as 35.95 mV.

For the compound `Cc1cccc2c1OCC[C@H]2NC(=O)NCc1ccnc(OCC(F)(F)F)c1` [Compound 184], the EC50 came out at 1.23 µM and the “Kv7.2/7.3 ΔV1/2” value is recorded as 42.17 mV.

Take `COc1ccc([C@@H](C)NC(=O)NCc2ccnc(OCC(F)(F)F)c2)cc1` [Compound 210]: the EC50 turned out to be 4.54 µM and the “Kv7.2/7.3 ΔV1/2” value was found to be 27.31 mV.

In the case of `O=C(NCc1ccnc(OCC(F)(F)F)c1)N[C@@H]1CCCc2c(F)cccc21` [Compound 216], the EC50 worked out at 1.4 µM and the “Kv7.2/7.3 ΔV1/2” value is 49.32 mV.

As to `COc1ccc2c(c1)[C@H](NC(=O)NCc1ccnc(OCC(F)(F)F)c1)CCO2` [Compound 182], the EC50 worked out at 1.55 µM and the “Kv7.2/7.3 ΔV1/2” value was 37.46 mV.

Turning to `C[C@@H](NC(=O)NCc1ccnc(OCC(F)(F)F)c1)c1ccc(OC(F)(F)F)cc1` [Compound 238], the EC50 stood at 2.91 µM and the “Kv7.2/7.3 ΔV1/2” value came out at 24.31 mV.
